Test results reported in ChEMBL document CHEMBL1201862, “PubChem BioAssay data set” (2004).
Active and inactive are the calls of the source.

What was measured:
[1] = target: T1, Heat shock factor protein 1 (Mus musculus, UniProt P38532); assay: HSF1 potentiators in luciferase reporter cells, confirmation, cell-based, NIH3T3, luminescence, dose retest (AID 435004); assay type: functional;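 further: stress induced by proteasome inhibitor MG132 added 30 min after compound; luciferase reporter driven by HSF1 response element in NIH3T3 cells; actives raise luminescence as potentiators of the MG132 stress response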
T1 sequence (P38532 whole entry): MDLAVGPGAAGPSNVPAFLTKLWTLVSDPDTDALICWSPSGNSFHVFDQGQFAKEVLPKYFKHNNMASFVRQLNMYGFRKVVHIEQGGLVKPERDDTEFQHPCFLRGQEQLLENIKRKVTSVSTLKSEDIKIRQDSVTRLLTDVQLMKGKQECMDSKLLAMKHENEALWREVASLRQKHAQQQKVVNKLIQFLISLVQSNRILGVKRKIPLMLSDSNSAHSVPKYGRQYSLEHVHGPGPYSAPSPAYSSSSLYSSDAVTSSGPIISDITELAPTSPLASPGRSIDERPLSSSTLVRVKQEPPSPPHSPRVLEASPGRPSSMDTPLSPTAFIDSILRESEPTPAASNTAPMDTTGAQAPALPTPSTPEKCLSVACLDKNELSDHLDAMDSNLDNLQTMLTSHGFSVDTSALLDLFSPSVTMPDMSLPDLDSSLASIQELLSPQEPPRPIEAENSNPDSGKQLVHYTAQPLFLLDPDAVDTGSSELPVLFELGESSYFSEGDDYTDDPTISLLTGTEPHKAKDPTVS

[2] = target: FAD-linked sulfhydryl oxidase ALR (Homo sapiens, UniProt P55789); assay: inhibitors of human ALR sulfhydryl oxidase, dose response, biochemical, H2O2 detection, luminescence, cherry-pick (AID 493248)
[3] = Luminescence Cell-Based Dose Response HTS to Identify Activators of Luciferase Translation or Activity in H4 […] Cells. [Related pubchem assays: 1829 (Project Summary), 1814 (Primary HTS)]; assay type: functional
[4] = Luminescence Cell-Based Dose Confirmation HTS to Identify Activators of 5'UTR Stem-Loop Driven Alpha-Synuclein mRNA Translation in H4 Neuroglioblastoma Cells. [Related pubchem assays: 1829 (Project Summary), 1814 (Primary HTS)]; assay type: functional
H4 = assay: Luminescence Cell-Based Dose Response HTS to Identify Activators of 5'UTR Stem-Loop Driven Prion Protein mRNA Translation in H4 Neuroglioblastoma Cells. [Related pubchem assays: 1829 (Project Summary), 1814 (Primary HTS)]; assay type: functional; conditions: Homo sapiens
BJ [5] = assay: cells; assay type: functional, cell-based; conditions: Homo sapiens
BJ [6] = assay: cytotoxicity toward BJ-TERT fibroblasts, dose response, cell-based, RAS-independent, luminescence (AID 1933); assay type: functional; conditions: Homo sapiens
BJ [7] = assay: cytotoxicity toward BJ-TERT-LT-ST fibroblasts, dose response, cell-based, RAS-independent, luminescence (AID 1935); assay type: functional; conditions: Homo sapiens;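 further: BJ fibroblasts immortalized with TERT plus LT and ST oncogenes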
[8] = cytotoxicity toward DRD oncogenic fibroblasts, dose response, cell-based, non-viral oncogenic, luminescence (AID 1934); assay type: functional; conditions: Homo sapiens
[9] = inhibitors of SNCA 5'UTR-driven reporter translation, confirmation, H4 neuroglioma cells, luminescence (AID 1988); assay type: functional, cell-based
[10] = inhibitors of firefly luciferase expression or activity, dose response, H4 neuroglioma cells, luminescence (AID 1990); assay type: functional, cell-based
[11] = Luminescence Cell-Based Dose Response HTS to Identify Inhibitors of 5'UTR Stem-Loop Driven Prion Protein mRNA Translation in H4 Neuroglioblastoma Cells. [Related pubchem assays: 1827 (Project Summary), 1813 (Primary HTS)]; assay type: functional
Streptococcus = assay: Group A Streptococcus viability loss, dose response, counter-screen for streptokinase expression inhibitor project, luminescence, BacTiterGlo (AID 1915); assay type: functional, organism-based;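 further: potency for reduction of bacterial viability or growth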
INS1 = assay: beta cell apoptosis inhibitors, cytokine rescue, dose response, luminescence, retest (AID 449756); assay type: functional, cell-based; conditions: Rattus norvegicus;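 further: cell death triggered by IL-1 beta plus TNF-alpha plus IFN-gamma mixture; protective hits raise ATP signal compared with cytokine alone wells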
Paired box protein Pax-8 = Paired box protein Pax-8 (Homo sapiens, UniProt Q06710); assay: inhibitors of PAX8-driven TPO luciferase reporter, dose response, RMG-I cells, cherry-pick (AID 687027); assay type: functional, cell-based;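 further: luciferase reporter driven by Pax8 target thyroperoxidase promoter measured by SteadyGlo luminescence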
[12] = Luminescence Cell-Based Dose Retest to Confirm Inhibitors of Cancer Stem Cells. [Related pubchem assays (depositor defined):AID2717, AID2721]; assay type: functional; conditions: Homo sapiens
[13] = tested on: Streptococcus sp. 'group A'; assay: growth inhibition of control SK(-) GAS strain, dose response, counter-screen for streptokinase expression inhibitor project, luminescence, kanamycin, BacTiterGlo, confirmation (AID 1900); assay type: functional, organism-based
[14] = cytotoxicity toward NIH3T3 fibroblasts, dose response, counter-screen, cell-based, ATP luminescence, mouse fibroblasts (AID 2010); assay type: functional;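 further: cells exposed to compound for about 90 hours before reading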
Cytochrome P450 2D6 = Cytochrome P450 2D6 (Homo sapiens, UniProt P10635);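 further: CYP2D6 member of a cytochrome P450 panel assay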
[15] = inhibitors of intracellular T. cruzi replication, confirmation, NIH3T3 host cells, beta-gal luminescence (AID 2044); assay type: functional, cell-based;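 further: intracellular parasites grown in NIH/3T3 mouse fibroblasts as host cells; luminescent beta-galactosidase reporter signal from transgenic T. cruzi replicating inside host cells; inhibitors lower the luminescence signal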
Cytochrome P450 2C19 = Cytochrome P450 2C19 (Homo sapiens, UniProt P33261); assay: Cytochrome panel assay with activity outcomes. Panel member name: p450-cyp2c19 Compounds with AC50 equal or less than 10 uM are considered active; assay type: functional; conditions: read-out: AC50
Sequence of Cytochrome P450 2C19 (P33261 whole entry): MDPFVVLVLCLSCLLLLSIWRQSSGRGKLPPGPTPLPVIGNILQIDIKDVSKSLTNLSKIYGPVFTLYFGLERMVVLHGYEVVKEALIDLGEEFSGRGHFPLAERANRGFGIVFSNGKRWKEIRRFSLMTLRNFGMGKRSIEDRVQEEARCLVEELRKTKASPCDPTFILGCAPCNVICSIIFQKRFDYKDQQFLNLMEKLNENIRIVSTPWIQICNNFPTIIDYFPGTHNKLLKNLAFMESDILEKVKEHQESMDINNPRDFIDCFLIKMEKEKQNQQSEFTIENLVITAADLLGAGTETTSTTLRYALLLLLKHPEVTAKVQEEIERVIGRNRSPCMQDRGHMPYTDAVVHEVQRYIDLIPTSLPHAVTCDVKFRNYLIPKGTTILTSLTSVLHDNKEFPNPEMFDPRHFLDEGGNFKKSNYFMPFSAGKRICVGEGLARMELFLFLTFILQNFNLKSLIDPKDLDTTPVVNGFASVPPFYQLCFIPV

Sequence of FAD-linked sulfhydryl oxidase ALR (P55789 whole entry): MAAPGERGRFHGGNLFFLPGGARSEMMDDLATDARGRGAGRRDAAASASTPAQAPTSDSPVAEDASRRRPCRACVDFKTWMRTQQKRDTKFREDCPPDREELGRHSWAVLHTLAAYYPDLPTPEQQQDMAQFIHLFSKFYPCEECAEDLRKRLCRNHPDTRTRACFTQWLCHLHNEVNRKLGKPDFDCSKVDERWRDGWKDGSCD
Sequence of Paired box protein Pax-8 (Q06710 whole entry): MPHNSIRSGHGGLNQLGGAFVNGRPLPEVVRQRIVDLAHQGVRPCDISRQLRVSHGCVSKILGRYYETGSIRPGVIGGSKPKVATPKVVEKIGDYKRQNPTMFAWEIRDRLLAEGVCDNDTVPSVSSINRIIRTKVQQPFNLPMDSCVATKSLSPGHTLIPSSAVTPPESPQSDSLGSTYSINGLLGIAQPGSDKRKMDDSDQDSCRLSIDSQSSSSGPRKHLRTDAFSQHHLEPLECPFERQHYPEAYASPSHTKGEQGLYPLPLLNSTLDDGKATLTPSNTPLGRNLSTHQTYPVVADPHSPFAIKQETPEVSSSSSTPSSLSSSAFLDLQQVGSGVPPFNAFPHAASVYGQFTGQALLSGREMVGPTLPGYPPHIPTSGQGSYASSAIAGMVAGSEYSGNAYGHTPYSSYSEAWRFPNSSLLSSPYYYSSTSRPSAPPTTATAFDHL
Sequence of Cytochrome P450 2D6 (P10635 whole entry): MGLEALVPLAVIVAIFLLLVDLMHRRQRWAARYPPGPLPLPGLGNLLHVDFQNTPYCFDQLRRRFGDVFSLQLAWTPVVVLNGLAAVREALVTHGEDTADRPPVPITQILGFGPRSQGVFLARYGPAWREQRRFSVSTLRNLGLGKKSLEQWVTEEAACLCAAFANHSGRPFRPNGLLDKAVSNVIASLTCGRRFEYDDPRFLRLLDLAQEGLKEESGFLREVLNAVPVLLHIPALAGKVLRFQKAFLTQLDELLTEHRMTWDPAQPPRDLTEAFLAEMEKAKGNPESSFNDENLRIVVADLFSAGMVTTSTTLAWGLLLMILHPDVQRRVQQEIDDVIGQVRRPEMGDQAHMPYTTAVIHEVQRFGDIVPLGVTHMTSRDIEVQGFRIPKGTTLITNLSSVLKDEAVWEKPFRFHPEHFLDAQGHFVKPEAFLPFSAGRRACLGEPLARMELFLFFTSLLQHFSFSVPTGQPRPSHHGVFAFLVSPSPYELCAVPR

SMILES: CC(=O)Nc1ccccc1OC(C)C(=O)N1CC(C)CC(C)C1 (centres undefined)
- EC50 [1]: > 260 µM (inactive)

SMILES: Cc1cc(C(=O)C(=O)O)c(C)n1-c1ccc(Cl)c(Cl)c1
- AC50 [2]: 1.39 µM (active)

SMILES: Cc1sc2c(c1C)CN(CCN1CCOCC1)CN2C(=O)c1ccccc1
- EC50 [3]: 13.7 µM (active)
- EC50 [4]: 19.9 µM (active)
- EC50 (H4): > 120 µM (not active)

SMILES: Cc1cc(NC(=O)c2cccc(Br)c2)[nH]n1
- EC50 [3]: 54.5 µM (active)
- EC50 [4]: 2.47 µM (active)

SMILES: Nc1ccccc1Sc1c[nH]c2ccccc12
- AC50 [2]: 24.5 µM (active)

SMILES: Cc1ccc2c(c1)C(N1CCCC1=O)CC(c1ccco1)N2 (centres undefined)
- EC50 [3]: 16.1 µM (active)
- EC50 [4]: 14.6 µM (active)
- EC50 (H4): > 120 µM (not active)

SMILES: Cc1ccc(C(=O)c2cc([N+](=O)[O-])ccc2N2CC(C)OC(C)C2)cc1 (centres undefined)
- EC50 (BJ [5]): 31.6 µM (active)
- EC50 (BJ [6]): 13.8 µM (active)
- EC50 (BJ [7]): 16.7 µM (active)
- EC50 [8]: 12.5 µM (active)

SMILES: CCO/C(O)=C1\C(C)=Nc2sc(C(=O)c3ccc(C)cc3)c(N)c2C1c1ccc(C(=O)OC)cc1 (centres undefined)
- EC50 [9]: > 120 µM (not active)
- EC50 [10]: > 120 µM (not active)
- EC50 [11]: > 120 µM (not active)

SMILES: CC1Oc2ccccc2C=C1/C=C1/SC(N2CCOCC2)=NC1=O (centres undefined)
- EC50 [3]: 37.3 µM (active)
- EC50 [4]: 7.43 µM (active)
- EC50 (H4): 10.9 µM (active)

SMILES: O=C(COc1ccccc1-c1ccccc1)N/N=C/c1ccc2ccccc2c1
- EC50 (BJ [5]): 0.568 µM (active)
- EC50 (Streptococcus): 2.41 µM (active)
- AC50 (INS1): 9.14 µM (active)
- EC50 (BJ [6]): 0.364 µM (active)
- EC50 (BJ [7]): 0.472 µM (active)
- EC50 [8]: 0.475 µM (active)
- AC50 (Paired box protein Pax-8): 2.1 µM (active)
- AC50 [12]: 0.258 µM (active)
- EC50 [13]: 4.87 µM (active)

SMILES: Cc1nc2ccccc2c(=O)n1CCc1ccc(O)cc1
- AC50 [2]: 3.66 µM (active)

SMILES: COc1cnn(-c2cc(Oc3ccc(C)cc3)ncn2)c(=O)c1Cl
- EC50 [1]: > 260 µM (inactive)

SMILES: CCC(C)n1ncn(-c2ccc(N3CCN(c4ccc(O)cc4)CC3)cc2)c1=O (centres undefined)
- EC50 [10]: > 120 µM (not active)
- AC50 [12]: 1.2 µM (active)
- EC50 [11]: 19.7 µM (active)

SMILES: O=C(CC1C=Cc2ccccc2N1C(=O)c1ccccc1)c1ccccc1 (centres undefined)
- EC50 [1]: > 260 µM (inactive)

SMILES: O=C(c1ccccc1F)N1CCN=C1SCc1cccnc1
- AC50 [2]: 0.552 µM (active)

SMILES: CCCCN1C(=O)/C(=C/c2c[nH]nc2-c2ccccc2)SC1=S
- EC50 [1]: > 260 µM (inactive)

SMILES: COc1ccccc1N1CCN(C(=O)Cn2nc(C(F)(F)F)c3c2CCC3)CC1
- EC50 [9]: > 120 µM (not active)
- EC50 [10]: > 120 µM (not active)
- EC50 [11]: > 120 µM (not active)

SMILES: CC(=O)Nc1ccc(NC2CCCCC2NS(=O)(=O)c2ccccc2)cc1 (centres undefined)
- AC50 [2]: 0.736 µM (active)

SMILES: Cc1ccccc1NCCC(=O)Nc1ccc(Cl)cc1
- AC50 [2]: 4.88 µM (active)

SMILES: O=C(c1cccc(F)c1)N1CCN=C1SCc1cccnc1
- AC50 [2]: 0.123 µM (active)

SMILES: CN(C)S(=O)(=O)Oc1ccsc1C(=O)Nc1ccccc1Cl
- EC50 [9]: 15.7 µM (active)
- EC50 [10]: > 120 µM (not active)
- EC50 [11]: > 120 µM (not active)

SMILES: CC1(C)CN(c2cccc(Br)c2)C1=O
- EC50 [1]: > 260 µM (inactive)

SMILES: C/C(=N\OC(=O)NC1CCCCC1)c1sc(-c2ccccc2)nc1C
- EC50 [3]: 0.673 µM (active)
- EC50 [14]: > 60 µM (not active)
- AC50 (Cytochrome P450 2D6): 28.2 µM (inconclusive)
- EC50 [4]: 22 µM (active)
- EC50 (H4): > 120 µM (inconclusive)
- EC50 [15]: 2.05 µM (active)

SMILES: CCC1CCCCN1C(=O)COC(=O)c1cc2ccccc2cc1O (centres undefined)
- EC50 [1]: > 260 µM (inactive)

SMILES: CCOC(=O)C1(Cc2cccc(OC)c2)CCCN(C(=O)CCc2cccnc2)C1 (centres undefined)
- EC50 [3]: 12.6 µM (active)
- EC50 [4]: 15.2 µM (active)
- EC50 (H4): > 120 µM (not active)

SMILES: CC(Sc1nnc2ccccn12)C(N)=O (centres undefined)
- EC50 [1]: > 260 µM (inactive)

SMILES: Cc1cccc(C(=O)NNC(=O)c2ccc(Cl)cc2)c1O
- EC50 [3]: 7.11 µM (active)
- EC50 [4]: 23.3 µM (active)
- EC50 (H4): 98.9 µM (active)

SMILES: COc1ccc(S(=O)(=O)Cc2ccc(C(=O)N3CCN(c4cccc(C)c4C)CC3)o2)cc1
- EC50 (BJ [5]): > 150 µM (not active)
- EC50 (BJ [6]): > 150 µM (not active)
- EC50 (BJ [7]): > 75 µM (inconclusive)
- EC50 [8]: 20.4 µM (active)

SMILES: CC(Oc1cccc(Cl)c1)C(=O)Nc1ccc([N+](=O)[O-])cn1 (centres undefined)
- EC50 [9]: 59.8 µM (active)
- EC50 [10]: 21.4 µM (active)
- EC50 [11]: > 120 µM (not active)

SMILES: Cc1ccc(S(=O)(=O)NC(=O)Nc2ccc(C)cn2)cc1
- EC50 [1]: > 260 µM (inactive)

SMILES: Cc1ccc(C(=O)O/N=C(\N)Cc2cccc3ccccc23)cc1
- EC50 [1]: > 260 µM (inactive)

SMILES: COc1cccc2cc(/C(=N/O)c3ccc(Br)cc3)oc12
- EC50 [9]: 12.8 µM (active)
- EC50 [10]: 14.6 µM (active)
- EC50 [11]: 18.6 µM (active)

SMILES: O=C(CC1Sc2ccccc2NC1=O)c1ccc(Br)cc1 (centres undefined)
- EC50 [3]: 7.15 µM (active)
- EC50 [4]: 5.6 µM (active)
- EC50 (H4): 36.6 µM (active)

SMILES: N/C(=C\C(=O)c1cc(Cl)ccc1O)C(Cl)(Cl)Cl
- EC50 (BJ [5]): 5.09 µM (active)
- EC50 (BJ [6]): 3.92 µM (active)
- EC50 (BJ [7]): 7.09 µM (active)
- EC50 [8]: 5.12 µM (active)

SMILES: O=C(COC(=O)/C=C/c1ccc(Br)o1)NCCCN1CCCC1=O
- EC50 [1]: > 260 µM (inactive)

SMILES: CC(Oc1ccc(F)cc1Br)c1nc(O)c2ccccc2n1 (centres undefined)
- EC50 [1]: 74.4 µM (active)

SMILES: O=C(NCc1csc(-c2ccccc2)n1)c1cc(F)cc2c1OCOC2
- EC50 [3]: 13.1 µM (active)
- EC50 [4]: 14.9 µM (active)
- EC50 (H4): 15.5 µM (active)

SMILES: COc1ccc(F)cc1S(=O)(=O)Nc1ccc2c(c1)OCO2
- EC50 [1]: > 260 µM (inactive)

SMILES: c1ccc(CCc2nc(-c3ccccc3)no2)cc1
- EC50 [3]: 51.8 µM (active)
- EC50 [4]: 56.8 µM (active)
- EC50 (H4): 6.54 µM (active)
- AC50 (Cytochrome P450 2C19): 0.501 µM (inconclusive)

SMILES: Cc1ccc(NCC(=O)N=Nc2c(O)[nH]c3ccc([N+](=O)[O-])cc23)cc1
- EC50 [3]: 0.255 µM (active)
- EC50 [4]: 24.6 µM (active)
- EC50 (H4): 0.303 µM (active)
